Assays:
[1] = test system: human diploid fibroblasts and human fetal lung (primary cell lines); conditions: concentration of 20 mM in culture media; cited from earlier work
[2] = test system: MYO-29 cell line; assay: Different concentrations of carnosine in 1 L bioreactor cell culture (Example 3); type: cell-based
Method: Four bioreactors were inoculated with 0.4×10^6 cells/ml with a 1 L working volume of a MYO-29 cell line in a serum free inoculation medium. All the bioreactors were all fed 5% (v/v) of a feed medium on day 7 of the 14-day run. The conditions of the bioreactor were held at a temperature of 37° C., a pH of 7.00, and a dissolved oxygen level at 30% air saturation.
All cells were cultured for four days at which point the temperature was shifted in all of the bioreactors to 31° C. […] All bioreactors were harvested on day 12 of the production run. Samples were taken throughout the run to monitor the progress of the cell culture medium. The controls performed generally as expected, except one control had slightly lower daily viabilities than previously seen.

[3] = test system: MYO-29 cell line; assay: Carnosine addition to 1 L fed-batch bioreactor cell culture (Example 2); type: cell-based; conditions: 20 mM carnosine added day 4
Method: Five bioreactors were inoculated with 0.9×10^6 cells/ml with a 1 L working volume of a MYO-29 cell line in a serum free inoculation medium. All the bioreactors were fed 5% (v/v) of a feed medium on days 3, 5, 7, and 12 of a 14-day run. A day 10 feed of 5% (v/v) of the feed medium was added to two of the control bioreactors and one containing carnosine. The conditions of the bioreactors were held at a temperature of 37° C., a pH of 7.00, and a dissolved oxygen level at 30% air saturation.
The bioreactors were harvested on day 14 of the production run. Samples were taken throughout the run to monitor the progress of the cell culture medium. The controls performed as expected.

[4] = test system: human or rodent transformed and neoplastic cells; conditions: cited from earlier work
[5] = addition of the chemical agent to the culture; cited from earlier work

| Compound | lifespan of cells [1] | daily titer ([2]; 20 mM or 40 mM carnosine added day 4, compared with one of the controls) | daily cell viability upon being harvested ([2]; 20 mM or 40 mM carnosine added day 4, harvest day 12, compared to two control bioreactors) | daily viable cell density ([2]; 20 mM or 40 mM carnosine added day 4, versus controls) | cumulative specific cellular productivity ([2]; 40 mM carnosine added day 4) | cumulative specific cellular productivity ([3]; 14-day run) | daily titer at the time of harvest ([3]; harvest day 14) | daily cell viability upon being harvested ([3]; harvest day 14, compared to bioreactors without carnosine) | cytotoxic effects ([4]; dialyzed fetal calf serum with low molecular weight compounds removed) | cytotoxicity ([4]; in Minimal Essential Medium (MEM), lower glucose levels) | cell growth and viable cell number [5] |
| --- | --- | --- | --- | --- | --- | --- | --- | --- | --- | --- | --- |
| NCCC(=O)N[C@@H](Cc1cnc[nH]1)C(=O)O [carnosine] | extend the lifespan | similar | higher viability | fairly similar with the exception of the bioreactor with 4 mM of carnosine | higher | better | higher titer | higher | increased the cytotoxic effects | cytotoxic |  |
| CCCC(=O)[O-].[Na+] [sodium butyrate] |  |  |  |  |  |  |  |  |  |  | cell growth ceases and the viable cell number decreases |
